Source: patent US7524853B2 (Solvay Pharmaceuticals B.V., priority 2003, dated 2009)

Legend:
Format in all cases: cell-based
[1] = target: T1, 17β-hydroxysteroid dehydrogenase type 1 (17β-HSD type 1) (Homo sapiens, UniProt P14061); assay: Inhibition of 17β-HSD type 1 in MCF-7 cells stably expressing the isoenzyme (tritium labeled estrone conversion, HPLC); conditions: MCF7, MCF-7 cells expressing 17β-HSD type 1, 2 nM tritium labeled estrone; for inhibition at 1 µM: 1 μM test compound, read-out: % Inhibition HSD1 1 μM; for inhibition at 10 µM: 10 μM test compound, read-out: % Inhibition HSD1 10 μM
T1 construct: expressed in transfected cells; host or cells: MCF-7
T1 sequence (P14061 1-328): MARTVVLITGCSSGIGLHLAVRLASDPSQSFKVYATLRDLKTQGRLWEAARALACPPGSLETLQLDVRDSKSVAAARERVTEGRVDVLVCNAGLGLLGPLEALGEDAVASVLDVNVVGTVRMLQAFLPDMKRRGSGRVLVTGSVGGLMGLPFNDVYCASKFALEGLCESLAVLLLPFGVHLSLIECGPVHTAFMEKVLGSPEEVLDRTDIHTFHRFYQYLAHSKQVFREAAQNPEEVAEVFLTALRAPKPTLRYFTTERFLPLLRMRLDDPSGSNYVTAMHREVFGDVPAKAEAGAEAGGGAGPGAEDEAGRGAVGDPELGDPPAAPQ
Outline: (§1)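 Percent inhibition derived by comparing substrate conversion with versus without compound, quantified by HPLC–radioflow detection after TCA stop. Cells were stably transfected MCF-7 expressing type 1, 2 or 3 enzyme, given 2 nM labeled estrone, estradiol or androstenedione respectively; compounds tested at two concentrations.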

[2] = target: T2, 17β-hydroxysteroid dehydrogenase type 2 (17β-HSD type 2) (Homo sapiens, UniProt P37059); assay: Inhibition of 17β-HSD type 2 in MCF-7 cells stably expressing the isoenzyme (tritium labeled estradiol conversion, HPLC); conditions: MCF7, MCF-7 cells expressing 17β-HSD type 2, 2 nM tritium labeled estradiol; for inhibition at 1 µM: 1 μM test compound, read-out: % Inhibition HSD2 1 μM; for inhibition at 10 µM: 10 μM test compound, read-out: % Inhibition HSD2 10 μM
T2 construct: expressed in transfected cells; host or cells: MCF-7
T2 sequence (P37059 1-387): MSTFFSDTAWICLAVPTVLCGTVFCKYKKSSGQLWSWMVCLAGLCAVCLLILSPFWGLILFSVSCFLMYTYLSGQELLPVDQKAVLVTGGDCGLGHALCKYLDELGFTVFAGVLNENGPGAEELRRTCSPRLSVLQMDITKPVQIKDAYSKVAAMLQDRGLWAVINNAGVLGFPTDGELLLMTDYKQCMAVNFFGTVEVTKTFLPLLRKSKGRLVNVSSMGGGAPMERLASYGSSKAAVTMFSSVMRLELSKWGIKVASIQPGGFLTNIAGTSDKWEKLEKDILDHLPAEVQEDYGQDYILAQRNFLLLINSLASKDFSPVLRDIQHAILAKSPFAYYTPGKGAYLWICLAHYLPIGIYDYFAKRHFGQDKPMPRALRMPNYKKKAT
Outline: as §1

[3] = target: T3, 17β-hydroxysteroid dehydrogenase type 3 (17β-HSD type 3) (Homo sapiens, UniProt P37058); assay: Inhibition of 17β-HSD type 3 in MCF-7 cells stably expressing the isoenzyme (tritium labeled androstenedione conversion, HPLC); conditions: MCF7, MCF-7 cells expressing 17β-HSD type 3, 2 nM tritium labeled androstenedione; for inhibition at 1 µM: 1 μM test compound, read-out: % Inhibition HSD3 1 μM; for inhibition at 10 µM: 10 μM test compound, read-out: % Inhibition HSD3 10 μM
T3 construct: expressed in transfected cells; host or cells: MCF-7
T3 sequence (P37058 1-310): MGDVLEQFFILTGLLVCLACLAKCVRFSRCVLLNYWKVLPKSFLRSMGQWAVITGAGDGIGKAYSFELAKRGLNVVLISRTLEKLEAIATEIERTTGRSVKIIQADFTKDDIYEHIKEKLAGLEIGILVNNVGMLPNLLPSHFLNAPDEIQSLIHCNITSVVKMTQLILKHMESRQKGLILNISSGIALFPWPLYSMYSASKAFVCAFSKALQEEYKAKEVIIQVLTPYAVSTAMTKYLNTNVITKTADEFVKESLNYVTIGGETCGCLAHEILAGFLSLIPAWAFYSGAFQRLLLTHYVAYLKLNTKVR
Outline: as §1

Row | Structure (SMILES) | inhibition at 1 µM [1] | inhibition at 10 µM [1] | inhibition at 1 µM [2] | inhibition at 10 µM [2] | inhibition at 1 µM [3] | inhibition at 10 µM [3]
1 | CCCCn1c(-c2cc(OC)c(OC)c(OC)c2Br)nc2sc3c(c2c1=O)CC(C)C(Br)C3=O (stereo not drawn) [No. 693, 3-Butyl-7-bromo-6-methyl-2-(2-bromo-3,4,5-trimethoxyphenyl)-6,7-dihydro-3H-benzo[4,5]thieno[2,3-d]pyrimidin-4,8-dione] | 15% | 5.7% | 18.1% | 18.2% | 5.2% | 16.8%
2 | CCCCn1c(-c2cc(OC)c(OC)c(OC)c2Br)nc2sc3c(O)cc(C)cc3c2c1=O [No. 694, 3-Butyl-2-(2-bromo-3,4,5-trimethoxyphenyl)-8-hydroxy-6-methyl-3H-benzo[4,5]thieno[2,3-d]pyrimidin-4-one] | 12.1% | 10.9% | 6.2% | 15.8% | 5.8% | 21.1%
3 | CCCCn1c(-c2cc(OC)c(OC)c(O)c2Br)nc2sc3c(O)c(Br)c(C)cc3c2c1=O [No. 699, 7-Bromo-2-(2-bromo-3-hydroxy4,5-dimethoxyphenyl)-3-butyl-8-hydroxy-6-methyl-3H-benzo[4,5]thieno[2,3-d]pyrimidin-4-one] | 5.9% | 7.3% | 16.1% | 19.6% | 7.4% | 8.5%
